According to ChEMBL document CHEMBL4184224, “Degradation of huntingtin mediated by a hybrid molecule composed of IAP antagonist linked to phenyldiazenyl benzothiazole derivative” (Bioorg Med Chem Lett, 2018):
Calls of active or inactive are those of the source. The calls are words filed in the database; no cut-off is given here. Where a SMILES comes first, the peptide text is derived from it. [ ]: non-standard residue; d: D form. The star is where a group is joined. X1 = CN(C)c1ccc(/N=N/c2nc3ccc(OCCOCCOCCN*)cc3s2)cc1; Dip = N[C@H](C(=O)O)C(c1ccccc1)c1ccccc1; Chg = N[C@H](C(=O)O)C1CCCCC1; NMeA = CN[C@@H](C)C(=O)O

Tests used:
Type in all cases: protein assay
[1] = biological target: T1, Baculoviral IAP repeat-containing protein 3/Huntingtin (Homo sapiens) (UniProt Q13489+P42858); experiment: Induction of IAP-huntingtin interaction-mediated huntingtin protein degradation in fibroblasts derived from normal human subjects assessed as huntingtin protein level at 10 uM incubated for 24 hrs by Western blot method (reference value: 100%)
[2] = biological target: T1, Baculoviral IAP repeat-containing protein 3/Huntingtin (Homo sapiens); experiment: Induction of IAP-huntingtin interaction-mediated huntingtin protein degradation in fibroblasts derived from normal human subjects assessed as huntingtin protein level at 10 uM incubated for 72 hrs by Western blot method (reference value: 100%)
[3] = biological target: T1, Baculoviral IAP repeat-containing protein 3/Huntingtin (Homo sapiens); experiment: Induction of IAP-huntingtin interaction-mediated huntingtin protein degradation in fibroblasts derived from Huntington's disease patient at 10 uM incubated for 24 to 72 hrs by Western blot method
[4] = biological target: T1, Baculoviral IAP repeat-containing protein 3/Huntingtin (Homo sapiens); experiment: Induction of IAP-huntingtin interaction-mediated huntingtin protein degradation in fibroblasts derived from normal human subjects assessed as huntingtin protein level at 10 uM incubated for 48 hrs by Western blot method (reference value: 100%)
[5] = biological target: T1, Baculoviral IAP repeat-containing protein 3/Huntingtin (Homo sapiens); experiment: Induction of IAP-huntingtin interaction-mediated huntingtin protein degradation in fibroblasts derived from normal human subjects at 10 uM incubated for 24 to 72 hrs by Western blot method
[6] = biological target: T1, Baculoviral IAP repeat-containing protein 3/Huntingtin (Homo sapiens); experiment: Induction of IAP-huntingtin interaction-mediated huntingtin protein degradation in fibroblasts derived from normal human subjects assessed as huntingtin protein level at 10 uM incubated for 96 hrs by Western blot method (reference value: 100%)
[7] = biological target: T1, Baculoviral IAP repeat-containing protein 3/Huntingtin (Homo sapiens); experiment: Induction of immobilized GST tagged BIR3 (unknown origin)/soluble GST-tagged huntingtin 62Q mutant (unknown origin) interaction at 10 uM in presence of 10 and 100 uM thioflavin T incubated for 1.5 hrs at 37 degC by ELISA
[8] = biological target: T1, Baculoviral IAP repeat-containing protein 3/Huntingtin (Homo sapiens); experiment: Induction of immobilized GST tagged BIR3 (unknown origin)/insoluble GST-tagged huntingtin 62Q mutant (unknown origin) interaction at 3 to 30 uM incubated for 1.5 hrs at 37 degC by ELISA
[9] = biological target: T1, Baculoviral IAP repeat-containing protein 3/Huntingtin (Homo sapiens); experiment: Induction of immobilized GST tagged BIR3 (unknown origin)/soluble GST-tagged huntingtin 62Q mutant (unknown origin) interaction at 10 uM in presence of 3 and 10 uM MV1 incubated for 1.5 hrs at 37 degC by ELISA
[10] = biological target: T1, Baculoviral IAP repeat-containing protein 3/Huntingtin (Homo sapiens); experiment: Induction of immobilized GST tagged BIR3 (unknown origin)/soluble GST-tagged huntingtin 62Q mutant (unknown origin) interaction at 3 to 30 uM incubated for 1.5 hrs at 37 degC by ELISA
[11] = biological target: T1, Baculoviral IAP repeat-containing protein 3/Huntingtin (Homo sapiens); experiment: Induction of IAP-huntingtin interaction-mediated huntingtin protein degradation in fibroblasts derived from Huntington's disease patient incubated for 48 to 72 hrs by Western blot method
[12] = biological target: T1, Baculoviral IAP repeat-containing protein 3/Huntingtin (Homo sapiens); experiment: Induction of IAP-huntingtin interaction-mediated huntingtin protein degradation in fibroblasts derived from Huntington's disease patient incubated for 24 hrs by Western blot method

T1 sequence (P42858 whole entry, looked up): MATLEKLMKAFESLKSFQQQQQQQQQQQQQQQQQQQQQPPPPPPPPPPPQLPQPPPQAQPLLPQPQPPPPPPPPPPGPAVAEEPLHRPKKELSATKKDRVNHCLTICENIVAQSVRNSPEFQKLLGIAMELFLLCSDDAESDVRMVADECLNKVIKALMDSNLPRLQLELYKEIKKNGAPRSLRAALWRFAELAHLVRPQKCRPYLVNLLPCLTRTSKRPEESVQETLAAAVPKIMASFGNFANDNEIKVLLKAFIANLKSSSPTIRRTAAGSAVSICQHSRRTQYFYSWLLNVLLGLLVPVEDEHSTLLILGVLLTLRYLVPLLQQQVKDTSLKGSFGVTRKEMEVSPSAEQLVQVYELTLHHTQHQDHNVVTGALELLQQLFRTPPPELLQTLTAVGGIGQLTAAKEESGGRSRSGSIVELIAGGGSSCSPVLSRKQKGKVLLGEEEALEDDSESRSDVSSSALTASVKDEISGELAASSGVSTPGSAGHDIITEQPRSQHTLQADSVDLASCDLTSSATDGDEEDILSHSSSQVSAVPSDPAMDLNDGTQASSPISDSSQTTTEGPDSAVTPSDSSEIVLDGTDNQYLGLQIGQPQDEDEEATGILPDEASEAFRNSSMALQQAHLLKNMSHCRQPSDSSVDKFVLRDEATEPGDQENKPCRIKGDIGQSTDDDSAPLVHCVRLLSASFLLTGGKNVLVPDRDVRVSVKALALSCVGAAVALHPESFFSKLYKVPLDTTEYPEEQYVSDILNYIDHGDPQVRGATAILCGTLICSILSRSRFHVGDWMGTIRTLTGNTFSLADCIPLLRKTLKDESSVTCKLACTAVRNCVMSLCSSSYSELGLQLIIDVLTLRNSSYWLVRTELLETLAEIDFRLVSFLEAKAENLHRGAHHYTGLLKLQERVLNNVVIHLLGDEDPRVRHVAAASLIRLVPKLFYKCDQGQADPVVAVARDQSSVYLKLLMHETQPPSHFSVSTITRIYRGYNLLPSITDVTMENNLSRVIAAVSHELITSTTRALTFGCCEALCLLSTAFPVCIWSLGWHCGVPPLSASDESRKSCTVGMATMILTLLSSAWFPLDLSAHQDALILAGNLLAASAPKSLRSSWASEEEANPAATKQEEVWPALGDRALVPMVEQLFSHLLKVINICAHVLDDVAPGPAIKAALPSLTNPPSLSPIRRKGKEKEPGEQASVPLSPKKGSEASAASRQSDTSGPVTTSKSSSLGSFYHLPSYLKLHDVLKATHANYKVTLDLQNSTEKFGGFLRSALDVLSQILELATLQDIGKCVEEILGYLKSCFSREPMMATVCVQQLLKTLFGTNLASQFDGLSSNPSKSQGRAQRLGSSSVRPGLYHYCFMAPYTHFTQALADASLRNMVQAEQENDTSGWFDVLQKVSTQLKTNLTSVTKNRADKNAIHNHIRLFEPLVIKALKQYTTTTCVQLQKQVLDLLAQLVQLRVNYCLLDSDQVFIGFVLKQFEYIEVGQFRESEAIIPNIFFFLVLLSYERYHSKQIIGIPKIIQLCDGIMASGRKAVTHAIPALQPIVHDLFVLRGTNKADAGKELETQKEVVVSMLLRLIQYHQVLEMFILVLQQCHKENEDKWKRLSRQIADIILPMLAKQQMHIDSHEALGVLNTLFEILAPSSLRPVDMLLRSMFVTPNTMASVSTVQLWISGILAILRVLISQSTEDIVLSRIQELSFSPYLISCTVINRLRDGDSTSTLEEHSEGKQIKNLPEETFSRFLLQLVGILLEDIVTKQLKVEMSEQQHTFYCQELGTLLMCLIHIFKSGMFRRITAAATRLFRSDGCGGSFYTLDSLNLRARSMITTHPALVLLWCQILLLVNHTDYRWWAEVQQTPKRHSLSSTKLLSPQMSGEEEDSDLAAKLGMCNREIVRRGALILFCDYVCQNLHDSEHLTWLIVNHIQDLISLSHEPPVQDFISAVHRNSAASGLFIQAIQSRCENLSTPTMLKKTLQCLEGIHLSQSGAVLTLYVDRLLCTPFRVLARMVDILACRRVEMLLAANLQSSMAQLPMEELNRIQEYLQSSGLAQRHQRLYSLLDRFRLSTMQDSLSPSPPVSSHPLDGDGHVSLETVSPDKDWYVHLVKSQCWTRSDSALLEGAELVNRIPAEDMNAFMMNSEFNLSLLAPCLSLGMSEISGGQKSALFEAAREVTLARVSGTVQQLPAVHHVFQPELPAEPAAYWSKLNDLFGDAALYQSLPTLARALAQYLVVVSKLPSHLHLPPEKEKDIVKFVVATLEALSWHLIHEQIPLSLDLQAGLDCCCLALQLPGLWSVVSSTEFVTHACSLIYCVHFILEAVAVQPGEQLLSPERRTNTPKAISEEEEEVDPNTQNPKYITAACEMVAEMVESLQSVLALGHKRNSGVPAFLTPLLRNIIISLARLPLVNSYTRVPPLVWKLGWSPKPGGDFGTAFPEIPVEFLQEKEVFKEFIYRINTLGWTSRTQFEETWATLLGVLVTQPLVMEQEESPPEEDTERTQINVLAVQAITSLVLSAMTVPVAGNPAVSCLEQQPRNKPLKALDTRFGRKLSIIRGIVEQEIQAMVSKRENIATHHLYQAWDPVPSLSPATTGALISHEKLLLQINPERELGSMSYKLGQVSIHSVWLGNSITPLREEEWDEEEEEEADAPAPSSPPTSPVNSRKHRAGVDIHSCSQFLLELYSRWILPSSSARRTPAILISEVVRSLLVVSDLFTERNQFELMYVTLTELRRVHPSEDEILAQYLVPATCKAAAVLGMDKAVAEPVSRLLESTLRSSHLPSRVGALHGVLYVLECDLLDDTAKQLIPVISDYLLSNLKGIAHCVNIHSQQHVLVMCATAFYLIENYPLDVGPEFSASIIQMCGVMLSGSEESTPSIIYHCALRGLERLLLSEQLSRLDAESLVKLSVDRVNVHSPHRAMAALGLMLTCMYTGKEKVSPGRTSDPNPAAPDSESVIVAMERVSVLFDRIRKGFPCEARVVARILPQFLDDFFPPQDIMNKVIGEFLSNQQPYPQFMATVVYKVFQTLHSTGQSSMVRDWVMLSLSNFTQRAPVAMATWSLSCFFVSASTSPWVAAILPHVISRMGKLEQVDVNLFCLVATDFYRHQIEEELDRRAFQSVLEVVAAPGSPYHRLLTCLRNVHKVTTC
T1 sequence (Q13489 whole entry, looked up): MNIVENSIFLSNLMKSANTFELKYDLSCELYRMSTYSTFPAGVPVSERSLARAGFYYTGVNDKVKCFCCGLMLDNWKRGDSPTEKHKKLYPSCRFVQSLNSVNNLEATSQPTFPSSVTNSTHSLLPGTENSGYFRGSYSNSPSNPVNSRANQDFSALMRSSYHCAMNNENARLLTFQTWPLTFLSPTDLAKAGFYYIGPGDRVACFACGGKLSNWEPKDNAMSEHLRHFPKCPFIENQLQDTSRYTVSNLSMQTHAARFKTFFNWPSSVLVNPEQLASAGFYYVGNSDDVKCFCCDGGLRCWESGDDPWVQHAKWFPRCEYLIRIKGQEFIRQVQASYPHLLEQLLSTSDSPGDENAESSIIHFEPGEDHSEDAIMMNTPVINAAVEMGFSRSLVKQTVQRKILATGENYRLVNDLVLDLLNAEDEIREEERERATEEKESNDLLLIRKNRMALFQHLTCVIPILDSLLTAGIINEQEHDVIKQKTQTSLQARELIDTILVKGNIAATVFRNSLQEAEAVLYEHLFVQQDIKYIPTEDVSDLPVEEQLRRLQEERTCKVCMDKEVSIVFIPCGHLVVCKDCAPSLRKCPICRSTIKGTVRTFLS

**Q.** What does the source list for Cc1ccc2nc(-c3ccc(NCCOCCOCCNC(=O)[C@H](CC(C)C)NC(=O)[C@@H](O)[C@H](N)Cc4ccccc4)cc3)sc2c1?
**A.** Activity [1]: Active; Activity [2]: Active; Activity [3]: Active; Activity [4]: Active; Activity [5]: Active; Activity [6]: Active

**Q.** Which results are given for CN[C@@H](C)C(=O)N[C@H](C(=O)N1CCC[C@H]1C(=O)N[C@H](C(=O)NCCOCCOCCOc1ccc2nc(/N=N/c3ccc(N(C)C)cc3)sc2c1)C(c1ccccc1)c1ccccc1)C1CCCCC1 (H-[NMeA][Chg]P[Dip]-X1)?
**A.** Activity [7]: inactive; Activity [8]: Active; Activity [1]: 72%; Activity [2]: 76%; Activity [3]: Active; Activity [4]: 70%; Activity [6]: 44%; Activity [9]: inactive; Activity [10]: Active; Activity [11]: Active; Activity [12]: Dose-dependent effect

**Q.** CC(C)C[C@H](NC(=O)[C@@H](O)[C@H](N)Cc1ccccc1)C(=O)NCCOCCOCCOc1ccc2nc(/N=N/c3ccc(N(C)C)cc3)sc2c1 was tested. Which Activity [1] did it give?
**A.** Active

**Q.** What about the Activity [2] of the same compound?
**A.** Active

**Q.** And the Activity [3]?
**A.** Active

**Q.** What about the Activity [4] of the same compound?
**A.** Active

**Q.** And the Activity [5]?
**A.** Active

**Q.** And the Activity [6]?
**A.** Active
